Laboratory results taken from BigSolDB 2.1.

Nc1cccc2c1CN(C1CCC(=O)NC1=O)C2=O (stereo not given)
solubility (mole fraction)
Conditions | 293.15 K | 298.15 K | 303.15 K | 308.15 K | 313.15 K | 318.15 K | 323.15 K | 328.15 K | 333.15 K
in acetonitrile | 0.000539 | 0.000549 | 0.000561 | 0.000573 | 0.000588 | 0.000603 | 0.000618 | 0.000634 | 0.000652
in ethanol | 0.000164 | 0.000183 | 0.000209 | 0.000238 | 0.00027 | 0.000309 | 0.000357 | 0.000404 | 0.00046
in ethyl acetate | 0.000127 | 0.000144 | 0.000164 | 0.000184 | 0.00021 | 0.000239 | 0.000277 | 0.000319 | 0.000367
in isopropanol | 6.37e-05 | 7.79e-05 | 9.5e-05 | 0.000116 | 0.000141 | 0.000168 | 0.000195 | 0.000231 | 0.000271
in methanol | 0.000252 | 0.000269 | 0.000288 | 0.000309 | 0.000332 | 0.000359 | 0.000394 | 0.000434 | 0.00048
